Values of other authors as cited in patent publication US8062666B2 (priority 2001, dated 2011).
Like-named read-outs stand apart in the source and are kept apart here.

Tests used:
[1] = 0.2 M sodium chloride
[2] = coated spheroid extended release dosage form of WO 99/22724, dissolution specification

COc1ccc(C(CN(C)C)C2(O)CCCCC2)cc1.Cl (racemic) [Venlafaxine hydrochloride, (R/S)-1-[2-(dimethylamino)-1-(4-methoxyphenyl)-ethyl]cyclohexanol hydrochloride]
octanol:water partition coefficient [1]: 0.43 | time at which peak blood plasma levels appeared (conventional release dosage forms (tablets)): 2 to 4 h | time for which plasma levels rose after administration (time to peak) (extended release dosage forms): five to eight | Average % venlafaxine HCL release ([2]; 2 hrs): <30% | Average % venlafaxine HCL release ([2]; 4 hrs): 30-55% | Average % venlafaxine HCL release ([2]; 8 hrs): 55-80% | Average % venlafaxine HCL release ([2]; 12 hrs): 65-90% | Average % venlafaxine HCL release ([2]; 24 hrs): >80%
